Test system: male ob/ob mice
Assay: Subchronic oral administration in male ob/ob mice (7, 15 and 28 day protocols), Method B15
Assay type: in vivo, mouse
Description: B15. Effects of Subchronic Administration of Compounds of the Invention in Male ob/ob Mice
The objective of this study is to determine the subchronic effects of test compounds on body weight change, food and water consumption, as well as glucose homeostasis and insulin levels in male ob/ob mice upon oral administration for up to 7 days. The male ob/ob mouse was selected as a type 2 diabetes (T2DM) and genetically defined obesity model which is sensitive to the effect of different insulin sensitizers in acute as well as in chronic settings.
A similar study in this model was conducted to determine the acute and subchronic effects of test compounds on body weight change, food and water consumption, glucose homeostasis, insulin and glucagon levels, as well as lipid profile and brain penetration upon oral administration to the male ob/ob mice for up to 28 days.
Mice were individually housed in rodent cages with soft wood bedding on the bottom and equipped with water bottles. All cages were clearly labeled with a cage card indicating study number, group, animal number and dose level. Each animal was uniquely identified by an animal number marked on their tail with indelible ink. The animal number was designated the day the animals arrive at the animal facility. The animal room environment was controlled (targeted ranges: temperature 22±2° C.; relative humidity 50±10%; light/dark cycle: 12 hours light, 12 hours dark, lights on from 06:00 AM to 06:00 PM). A regular rodent diet (Charles River 5075 rodent chow, Purina Mills, Canada) was provided to the animals ad libitum. Municipal tap water was provided to the animals ad libitum via water bottles. Fresh tap water was provided after water bottle weighing. An acclimation period of approximately 7 days for all groups was allowed between the receipt of animals and the start of treatment to accustom the […] to the laboratory environment. On experimental Day −7, animals were stratified according to body weight and glycemia into an appropriate number of groups of 5 or 10 animals and two groups of 5 animals.
Test compounds were administered, as a solution, orally, at the doses indicated. The dose volume will be 5 mL/kg/day. Groups were dosed once daily around 4:00 p.m. As positive controls, rosiglitazone (Avandia®), an approved anti-diabetic drug of the thiazolidinediones family (ppar gamma agonist) which has been specifically reported to normalize glycemia in the ob/ob mouse model (Liu et al., J. Med. Chem.; 46: 2093-2103, 2003) was used. The CB1 receptor antagonist rimonabant (Accomplia®) was reported to reduce body weight and food intake in different models of Type 2 diabetes and obesity and was also employed (Rasmussen and Huskinson Behavioral Pharmacol. 2008, 19, 735-742,; Bobo, G.; et al. Hepathology 2007, 46, 122-129; Di Marzo; et al., Nature 2001, 410, 822-825).
For, the study animals, the data collected from study Day −7 to Day 8 were reported. Body weights were recorded for all animals on Day −7 prior to initiation of dosing, at the time of group assignment and daily throughout the study period (Day 1-8). Food and water intake was Measured 4 hrs post-dosing, 2 hrs after the beginning of the dark cycle (around 8:00 p.m.) on Day 1 and 7 (Subset A) as well as on Day 2 and 8 (Subset B) and then daily in 24 h intervals from Day 3 through Day 8. On Day 1 (Subset A) and Day 2 (Subset B), blood was sampled from 3 animals/group from Groups 2 through 4 into EDTA coated tubes (K2-EDTA microtainer tubes, Becton Dickinson) from a tail vein (˜100 μL) 4 hrs post-dose for PK analysis. Blood was centrifuged at 4000 rpm for 10 min. at 4° C., and the resulting plasma transferred into non-coated tubes and stored at −80° C. until analysis. The same procedures were repeated on Day 7 (Subset A) and Day 8 (Subset B) 24 hrs post-dose. […]

[1] = vs vehicle control mice, FIG. 13

Structure (SMILES) | acute cumulative food intake (over a 2 hr period, fasted animals, vs vehicle control, FIG. 11) | blood glucose levels during oral glucose tolerance test (75 mg/kg, vs vehicle control) | reduction in cumulative food intake (po, 75 mg/kg, 336 h) [%] | insulin sensitivity (treated ob/ob mice) | free fatty acids (FFAs) [1] | glucagon [1] | insulin [1] | non-fasting glucose [1] | total cholesterol level significantly reduced [1] | triglycerides level significantly reduced [1]
CC(C)[C@@H]1NCCOc2ccccc2C#CCNC(=O)[C@@H](Cc2ccccc2)NC(=O)[C@H](C(C)O)N(C)C1=O (stereo partly shown) [Compound 1712] | significantly reduced | – | – | – | – | – | – | – | – | –
CC(C)[C@@H]1NCCOc2ccccc2C2CCC(C2)NC(=O)[C@@H](Cc2ccccc2)NC(=O)[C@H](C(C)O)N(C)C1=O (stereo partly shown) [Compound 1848] | – | significant decrease | 11.9 | improvement | significantly reduced | significantly reduced | significantly reduced | significantly reduced | not | not
